# According to patent US7994185B2, “Benzene sulfonamide thiazole and oxazole compounds” (Glaxo Smith Kline LLC, priority 2008, dated 2011):
# Like-named read-outs stand apart in the source and are kept apart here.
# Tests used:
# [1] = system: Human melanoma cancer cells (SK-MEL-28); assay: Cell growth inhibition assay (CellTiter-Glo), SK-MEL-28; assay type: cell-based
# [2] = biological target: T1, BRAFV600E full-length (amino acids 2-766) (Homo sapiens, UniProt P15056, V600E); assay: B-Raf Accelerated MEK ATPase assay (BRAMA); assay type: biochemical; conditions: categorized
# T1 construct: His6-tagged BRAFV600E full-length (amino acids 2-766); His6; made in house; host or cells: baculovirus expression system (insect cells)
# Method in brief: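 Coupled-enzyme readout: ADP generated by MEK-mediated ATP hydrolysis, uncoupled from ERK phosphorylation, is linked to NADH oxidation through pyruvate kinase and lactate dehydrogenase.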
# [3] = system: Human colon tumor cells (Colo205); assay: Cell growth inhibition assay (CellTiter-Glo), Colo205; assay type: cell-based
# Method in brief: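 Luminescent ATP read-out (CellTiter-Glo) served as a proxy for cell number; percent growth inhibition was calculated against DMSO vehicle wells. Cells were treated for 3 days at 37 °C with serially diluted compound, 0.2% DMSO final.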
# [4] = SK-MEL-28, Table 3b, later runs, average for the one or more runs, categorized, read-out: IC50 for SK-MEL-28
# [5] = B-Raf pIC50, Table 1b, later runs, average pIC50 for the one or more runs
# [6] = COLO 205, Table 2b, later runs, average for the one or more runs, categorized, read-out: IC50 for Colo205
# [7] = SK-MEL-28, 72 h, Table 3a, 3 days incubation, read-out: Activity in SK-MEL-28 Tumor Cells
# [8] = B-Raf Activity, Table 1a, highest pIC50 for the one or more runs
# [9] = COLO 205, 72 h, Table 2a, 3 days incubation, read-out: Activity in Colo205 Tumor Cells
# [10] = Table 1b, later runs, average pIC50 for the one or more runs, read-out: B-Raf pIC50 (converted)
# T1 sequence (P15056 2-766 V600E): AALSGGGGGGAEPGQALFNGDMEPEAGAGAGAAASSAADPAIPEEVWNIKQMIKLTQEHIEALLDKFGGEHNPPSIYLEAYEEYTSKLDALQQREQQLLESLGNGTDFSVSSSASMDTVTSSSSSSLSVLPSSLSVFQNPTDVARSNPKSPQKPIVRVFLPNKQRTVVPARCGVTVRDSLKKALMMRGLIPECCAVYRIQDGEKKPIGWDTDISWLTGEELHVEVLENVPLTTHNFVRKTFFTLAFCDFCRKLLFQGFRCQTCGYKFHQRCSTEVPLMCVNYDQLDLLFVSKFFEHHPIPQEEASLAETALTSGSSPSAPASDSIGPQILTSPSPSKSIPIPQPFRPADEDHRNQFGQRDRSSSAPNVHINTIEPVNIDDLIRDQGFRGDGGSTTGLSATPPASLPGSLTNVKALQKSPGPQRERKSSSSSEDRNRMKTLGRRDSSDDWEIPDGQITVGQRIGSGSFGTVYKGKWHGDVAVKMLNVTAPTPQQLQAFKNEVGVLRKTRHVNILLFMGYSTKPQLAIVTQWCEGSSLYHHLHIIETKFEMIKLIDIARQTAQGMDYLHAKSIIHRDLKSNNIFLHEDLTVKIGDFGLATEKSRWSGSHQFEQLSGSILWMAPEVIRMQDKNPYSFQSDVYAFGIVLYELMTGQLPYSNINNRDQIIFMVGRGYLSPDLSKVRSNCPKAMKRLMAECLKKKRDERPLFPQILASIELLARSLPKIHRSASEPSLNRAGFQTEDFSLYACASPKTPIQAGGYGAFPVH
SMILES,"IC50 [1, 4] [nM]","IC50 [2, 5] [nM]","IC50 [3, 6] [nM]","IC50 [1, 7] [nM]","IC50 [2, 8] [nM]","IC50 [3, 9] [nM]","IC50 [2, 10] [nM]"
"Nc1nccc(-c2sc(C3CCOCC3)nc2-c2cccc(NS(=O)(=O)c3c(F)cccc3F)c2Cl)n1 [Example 238, N-{3-[5-(2-amino-4-pyrimidinyl)-2-(tetrahydro-2H-pyran-4-yl)-1,3-thiazol-4-yl]-2-chlorophenyl}-2,6-difluorobenzenesulfonamide]",< 100,≤ 3.16,< 100,,,,
"Nc1nccc(-c2sc(N3CCOCC3)nc2-c2cccc(NS(=O)(=O)c3c(F)cccc3F)c2Cl)n1 [Example 21, N-{3-[5-(2-Amino-4-pyrimidinyl)-2-(4-morpholinyl)-1,3-thiazol-4-yl]-2-chlorophenyl}-2,6-difluorobenzenesulfonamide]",100 to 1000,≤ 3.16,100 to 1000,100 to 1000,< 100,100 to 1000,
CC(C)c1nc(-c2ccc(F)c(NS(=O)(=O)c3cc(F)ccc3F)c2)c(-c2ccnc(N[C@H]3CCCN(C(=O)OC(C)(C)C)C3)n2)s1 [Example 133],1000 to 10000,31.6 to 1000,1000 to 10000,> 1000,100 to 1000,> 1000,
"CC(C)c1nc(-c2cccc(NS(=O)(=O)c3cccs3)c2)c(-c2ccnc(NCCS(C)(=O)=O)n2)s1 [Example 31, N-{3-[2-(1-Methylethyl)-5-(2-{[2-(methylsulfonyl)ethyl]amino}-4-pyrimidinyl)-1,3-thiazol-4-yl]phenyl}-2-thiophenesulfonamide]",< 100,≤ 3.16,< 100,< 100,< 100,< 100,
"CS(=O)(=O)N1CCC(Nc2nccc(-c3sc(C4CCC4)nc3-c3ccc(F)c(NS(=O)(=O)c4cc(F)ccc4F)c3)n2)CC1 [Example 80, N-{5-[2-Cyclobutyl-5-(2-{[1-(methylsulfonyl)-4-piperidinyl]amino}-4-pyrimidinyl)-1,3-thiazol-4-yl]-2-fluorophenyl}-2,5-difluorobenzenesulfonamide]",100 to 1000,,100 to 1000,100 to 1000,< 100,100 to 1000,3.16 to 31.6
"CC(C)(C)c1nc(-c2cccc(NS(=O)(=O)c3ccccn3)c2F)c(-c2ccnc(N)n2)s1 [Example 278, N-{3-[5-(2-amino-4-pyrimidinyl)-2-(1,1-dimethylethyl)-1,3-thiazol-4-yl]-2-fluorophenyl}-2-pyridinesulfonamide]",100 to 1000,,100 to 1000,,,,3.16 to 31.6
"CC(C)(C)c1nc(-c2cccc(NS(=O)(=O)c3cc(F)ccc3F)c2F)c(-c2ccnc(NCCNC(=O)CO)n2)s1 [Example 98, N-{2-([4-[4-(3-{[(2,5-Difluorophenyl)sulfonyl]amino}-2-fluorophenyl)-2-(1,1-dimethylethyl)-1,3-thiazol-5-yl]-2-pyrimidinyl}amino)ethyl]-2-hydroxyacetamide]",< 100,≤ 3.16,< 100,< 100,< 100,< 100,
CCCNc1nccc(-c2sc(C(C)C)nc2-c2ccc(F)c(NS(=O)(=O)c3cc(F)ccc3F)c2)n1 [Example 120],100 to 1000,,100 to 1000,100 to 1000,< 100,100 to 1000,3.16 to 31.6
CC(C)CNc1nccc(-c2sc(C(C)C)nc2-c2cccc(NS(=O)(=O)c3ccco3)c2F)n1 [Example 154],100 to 1000,≤ 3.16,100 to 1000,100 to 1000,< 100,100 to 1000,
CC(C)Nc1nccc(-c2sc(N3CCOCC3)nc2-c2cccc(NS(=O)(=O)c3c(F)cccc3F)c2F)n1 [Example 136],100 to 1000,,100 to 1000,100 to 1000,< 100,100 to 1000,3.16 to 31.6
COc1ccc(F)cc1S(=O)(=O)Nc1cccc(-c2nc(C(C)C)sc2-c2ccnc(NCC(C)C)n2)c1F [Example 152],< 100,,< 100,< 100,< 100,< 100,3.16 to 31.6
"Cc1nccc(-c2sc(N3CCS(=O)(=O)CC3)nc2-c2cccc(NS(=O)(=O)c3cc(F)ccc3F)c2F)n1 [Example 253, N-{3-[2-(1,1-dioxido-4-thiomorpholinyl)-5-(2-methyl-4-pyrimidinyl)-1,3-thiazol-4-yl]-2-fluorophenyl}-2,5-difluorobenzenesulfonamide]",< 100,,< 100,,,,3.16 to 31.6
"Nc1nccc(-c2sc(C3CCOCC3)nc2-c2cccc(NS(=O)(=O)c3ccoc3)c2F)n1 [Example 281, N-{3-[5-(2-amino-4-pyrimidinyl)-2-(tetrahydro-2H-pyran-4-yl)-1,3-thiazol-4-yl]-2-fluorophenyl}-3-furansulfonamide]",< 100,≤ 3.16,< 100,,,,
"CS(=O)(=O)N1CCN(c2nc(-c3cccc(NS(=O)(=O)c4c(F)cccc4F)c3F)c(-c3ccnc(N)n3)s2)CC1 [Example 100, N-(3-{5-(2-Amino-4-pyrimidinyl)-2-[4-(methylsulfonyl)-1-piperazinyl]-1,3-thiazol-4-yl}-2-fluorophenyl)-2,6-difluorobenzenesulfonamide]",100 to 1000,,100 to 1000,100 to 1000,< 100,100 to 1000,3.16 to 31.6
CC(C)CNc1nccc(-c2sc(N3CCOCC3)nc2-c2cccc(NS(=O)(=O)c3cc(F)ccc3F)c2)n1 [Example 206],< 100,,< 100,< 100,< 100,< 100,3.16 to 31.6
"CC(C)c1nc(-c2ccc(F)c(NS(=O)(=O)c3c(F)cccc3F)c2)c(-c2ccnc(NCC3CCCO3)n2)s1 (centres unmarked) [Example 5, 2,6-Difluoro-N-[2-fluoro-5-(2-(1-methylethyl)-5-{2-[(tetrahydro-2-furanylmethyl)amino]-4-pyrimidinyl}-1,3-thiazol-4-yl)phenyl]benzenesulfonamide]",100 to 1000,31.6 to 1000,1000 to 10000,100 to 1000,100 to 1000,100 to 1000,
CC(C)(C)c1nc(-c2cccc(NS(=O)(=O)c3cc(F)ccc3F)c2F)c(-c2ccnc(CCN3CCS(=O)(=O)CC3)n2)s1 [Example 216],< 100,,< 100,,< 100,,3.16 to 31.6
"Nc1nccc(-c2oc(N3CCCC3)nc2-c2cccc(NS(=O)(=O)c3c(F)cccc3F)c2)n1 [Example 110, N-{3-[5-(2-Amino-4-pyrimidinyl)-2-(1-pyrrolidinyl)-1,3-oxazol-4-yl]phenyl}-2,6-difluorobenzenesulfonamide]",1000 to 10000,31.6 to 1000,1000 to 10000,,100 to 1000,,
"CC(C)c1nc(-c2ccc(F)c(NS(=O)(=O)c3c(F)cccc3F)c2)c(-c2ccnc(NCC3CC3)n2)s1 [Example 6, N-{5-[5-{2-[(Cyclopropylmethyl)amino]-4-pyrimidinyl}-2-(1-methylethyl)-1,3-thiazol-4-yl]-2-fluorophenyl}-2,6-difluorobenzenesulfonamide]",1000 to 10000,31.6 to 1000,1000 to 10000,> 1000,< 100,> 1000,
"CC(C)(O)CCc1nccc(-c2sc(N3CCOCC3)nc2-c2cccc(NS(=O)(=O)c3cc(F)ccc3F)c2F)n1 [Example 248, 2,5-difluoro-N-{2-fluoro-3-[5-[2-(3-hydroxy-3-methylbutyl)-4-pyrimidinyl]-2-(4-morpholinyl)-1,3-thiazol-4-yl]phenyl}benzenesulfonamide]",< 100,,< 100,,,,3.16 to 31.6
"Nc1nccc(-c2sc(N3CCOCC3)nc2-c2cccc(NS(=O)(=O)c3cc(F)ccc3F)c2F)n1 [Example 56, N-{3-[5-(2-Amino-4-pyrimidinyl)-2-(4-morpholinyl)-1,3-thiazol-4-yl]-2-fluorophenyl}-2,5-difluorobenzenesulfonamide]",< 100,≤ 3.16,< 100,< 100,< 100,< 100,
"CC(C)(C)c1nc(-c2cccc(NS(=O)(=O)c3cccc(F)c3)c2F)c(-c2ccncn2)s1 [Example 223, N-{3-[2-(1′-dimethylethyl)-5-(4-pyrimidinyl)-1,3-thiazol-4-yl]-2-fluorophenyl}-3-fluorobenzenesulfonamide]",< 100,≤ 3.16,< 100,,,,
COCC(C)Nc1nccc(-c2sc(C(C)C)nc2-c2ccc(F)c(NS(=O)(=O)c3c(F)cccc3F)c2)n1 (centres unmarked) [Example 162],100 to 1000,31.6 to 1000,100 to 1000,100 to 1000,100 to 1000,100 to 1000,
"CS(=O)(=O)N1CCN(c2nc(-c3cccc(NS(=O)(=O)c4cc(F)ccc4F)c3F)c(-c3ccnc(N)n3)s2)CC1 [Example 99, N-(3-{5-(2-Amino-4-pyrimidinyl)-2-[4-(methylsulfonyl)-1-piperazinyl]-1,3-thiazol-4-yl}-2-fluorophenyl)-2,5-difluorobenzenesulfonamide]",100 to 1000,≤ 3.16,100 to 1000,100 to 1000,< 100,100 to 1000,
